Reference: PubChem BioAssay (NCI)
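1) Cells in 96-well plates. 2) Compound, 48 h, 5 concentrations. 3) Linear interpolation between surrounding doses. 4) Unreached endpoint = highest concentration. The concentration for full growth arrest is given as TGI.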

How the values were obtained:
Test in all cases: NCI tumour cell line growth inhibition, 48 h
786-0 renal = test system: 786-0 renal
MDA-N = test system: MDA-N
OVCAR-5 ovarian = test system: OVCAR-5 ovarian
MCF7 breast = test system: MCF7 breast
HCC-2998 colon = test system: HCC-2998 colon
SNB-75 CNS = test system: SNB-75 CNS
DU-145 prostate = test system: DU-145 prostate
M14 melanoma = test system: M14 melanoma
LXFL 529 NSCLC = test system: LXFL 529 NSCLC
NCI-H23 lung = test system: NCI-H23 lung
SK-MEL-28 melanoma = test system: SK-MEL-28 melanoma
MOLT-4 leukemia = test system: MOLT-4 leukemia
SW-620 colon = test system: SW-620 colon
IGROV1 ovarian = test system: IGROV1 ovarian
UACC-62 melanoma = test system: UACC-62 melanoma
RXF 393 renal = test system: RXF 393 renal
NCI/ADR-RES ovarian = test system: NCI/ADR-RES ovarian
MDA-MB-231 breast = test system: MDA-MB-231 breast
DMS 114 small cell lung = test system: DMS 114 small cell lung
U251 CNS = test system: U251 CNS
SF-539 CNS = test system: SF-539 CNS
KM12 colon = test system: KM12 colon
HCT-116 colon = test system: HCT-116 colon
MALME-3M melanoma = test system: MALME-3M melanoma
OVCAR-8 ovarian = test system: OVCAR-8 ovarian
OVCAR-4 ovarian = test system: OVCAR-4 ovarian
UO-31 renal = test system: UO-31 renal
NCI-H460 lung = test system: NCI-H460 lung
CCRF-CEM leukemia = test system: CCRF-CEM leukemia
KM20L2 colon = test system: KM20L2 colon
RPMI-8226 leukemia = test system: RPMI-8226 leukemia
COLO 205 colon = test system: COLO 205 colon
HCT-15 colon = test system: HCT-15 colon
SNB-19 CNS = test system: SNB-19 CNS
DMS 273 small cell lung = test system: DMS 273 small cell lung
HT29 colon = test system: HT29 colon
SR leukemia = test system: SR leukemia
XF 498 CNS = test system: XF 498 CNS
HOP-62 NSCLC = test system: HOP-62 NSCLC
T-47D breast = test system: T-47D breast
TK-10 renal = test system: TK-10 renal
SNB-78 CNS = test system: SNB-78 CNS
SN12C renal = test system: SN12C renal
SK-OV-3 ovarian = test system: SK-OV-3 ovarian
HL-60(TB) leukemia = test system: HL-60(TB) leukemia
LOX IMVI melanoma = test system: LOX IMVI melanoma
A498 renal = test system: A498 renal
A549 NSCLC = test system: A549 NSCLC
HOP-92 NSCLC = test system: HOP-92 NSCLC
DLD-1 colon = test system: DLD-1 colon
SF-295 CNS = test system: SF-295 CNS
MDA-MB-435 = test system: MDA-MB-435
NCI-H522 lung = test system: NCI-H522 lung
K-562 leukemia = test system: K-562 leukemia
HS 578T breast = test system: HS 578T breast
M19-MEL melanoma = test system: M19-MEL melanoma
OVCAR-3 ovarian = test system: OVCAR-3 ovarian
SK-MEL-5 melanoma = test system: SK-MEL-5 melanoma
SK-MEL-2 melanoma = test system: SK-MEL-2 melanoma
BT-549 breast = test system: BT-549 breast
EKVX NSCLC = test system: EKVX NSCLC
SF-268 CNS = test system: SF-268 CNS
NCI-H226 lung = test system: NCI-H226 lung
CAKI-1 renal = test system: CAKI-1 renal
UACC-257 melanoma = test system: UACC-257 melanoma
PC-3 prostate = test system: PC-3 prostate
ACHN renal = test system: ACHN renal

CCOc1ccc2nc(NC(=O)C(=O)C(C(=O)c3ccccc3-c3ccccc3)C3OC(=O)c4ccccc43)sc2c1 (stereo unspecified)
TGI (786-0 renal): 34.6 µM
TGI (MDA-N): 70.9 µM
TGI (OVCAR-5 ovarian): > 100 µM
TGI (MCF7 breast): > 100 µM
TGI (HCC-2998 colon): 33.1 µM
TGI (SNB-75 CNS): 61.6 µM
TGI (DU-145 prostate): 56.1 µM
TGI (M14 melanoma): > 67.2 µM
TGI (LXFL 529 NSCLC): 41.1 µM
TGI (NCI-H23 lung): 47.4 µM
TGI (SK-MEL-28 melanoma): 54.2 µM
TGI (MOLT-4 leukemia): 99.6 µM
TGI (SW-620 colon): 60.1 µM
TGI (IGROV1 ovarian): > 68 µM
TGI (UACC-62 melanoma): 34.8 µM
TGI (RXF 393 renal): 18.1 µM
TGI (NCI/ADR-RES ovarian): 37.9 µM
TGI (MDA-MB-231 breast): 70.8 µM
TGI (DMS 114 small cell lung): 35 µM
TGI (U251 CNS): 31.7 µM
TGI (SF-539 CNS): 36.7 µM
TGI (KM12 colon): 32.5 µM
TGI (HCT-116 colon): 33.7 µM
TGI (MALME-3M melanoma): 34.8 µM
TGI (OVCAR-8 ovarian): 25.7 µM
TGI (OVCAR-4 ovarian): > 100 µM
TGI (UO-31 renal): 52.8 µM
TGI (NCI-H460 lung): 42.7 µM
TGI (CCRF-CEM leukemia): 64.2 µM
TGI (KM20L2 colon): 54.6 µM
TGI (RPMI-8226 leukemia): 52.4 µM
TGI (COLO 205 colon): 37 µM
TGI (HCT-15 colon): > 62.4 µM
TGI (SNB-19 CNS): 36.3 µM
TGI (DMS 273 small cell lung): > 100 µM
TGI (HT29 colon): 43.6 µM
TGI (SR leukemia): 43 µM
TGI (XF 498 CNS): 49.1 µM
TGI (HOP-62 NSCLC): 99.3 µM
TGI (T-47D breast): 60.7 µM
TGI (TK-10 renal): 41.9 µM
TGI (SNB-78 CNS): > 100 µM
TGI (SN12C renal): 51.9 µM
TGI (SK-OV-3 ovarian): > 72.6 µM
TGI (HL-60(TB) leukemia): 68.7 µM
TGI (LOX IMVI melanoma): 39.4 µM
TGI (A498 renal): 48.1 µM
TGI (A549 NSCLC): > 71.2 µM
TGI (HOP-92 NSCLC): 46.8 µM
TGI (DLD-1 colon): > 100 µM
TGI (SF-295 CNS): > 93.8 µM
TGI (MDA-MB-435): 65.1 µM
TGI (NCI-H522 lung): 32 µM
TGI (K-562 leukemia): > 67 µM
TGI (HS 578T breast): > 100 µM
TGI (M19-MEL melanoma): 44.2 µM
TGI (OVCAR-3 ovarian): 89.8 µM
TGI (SK-MEL-5 melanoma): 31.3 µM
TGI (SK-MEL-2 melanoma): 60.1 µM
TGI (BT-549 breast): 81.7 µM
TGI (EKVX NSCLC): 47.5 µM
TGI (SF-268 CNS): 79.5 µM
TGI (NCI-H226 lung): 21.5 µM
TGI (CAKI-1 renal): 53.2 µM
TGI (UACC-257 melanoma): > 96 µM
TGI (PC-3 prostate): 41.7 µM
TGI (ACHN renal): > 100 µM

CC1CC2C3CC(F)C4=CC(=O)C=CC4(C)C3(F)C(O)CC2(C)C1(O)C(=O)COC(=O)C(C)(C)C (stereo unspecified)
TGI (786-0 renal): > 100 µM
TGI (OVCAR-5 ovarian): > 100 µM
TGI (HCC-2998 colon): > 100 µM
TGI (SNB-75 CNS): > 100 µM
TGI (M14 melanoma): > 100 µM
TGI (NCI-H23 lung): > 100 µM
TGI (SK-MEL-28 melanoma): > 100 µM
TGI (MOLT-4 leukemia): > 100 µM
TGI (SW-620 colon): > 100 µM
TGI (IGROV1 ovarian): > 100 µM
TGI (UACC-62 melanoma): > 100 µM
TGI (RXF 393 renal): 76.6 µM
TGI (DMS 114 small cell lung): > 100 µM
TGI (U251 CNS): > 100 µM
TGI (SF-539 CNS): > 100 µM
TGI (KM12 colon): > 100 µM
TGI (HCT-116 colon): > 100 µM
TGI (MALME-3M melanoma): > 100 µM
TGI (OVCAR-4 ovarian): > 100 µM
TGI (UO-31 renal): > 100 µM
TGI (NCI-H460 lung): > 100 µM
TGI (CCRF-CEM leukemia): > 100 µM
TGI (KM20L2 colon): > 100 µM
TGI (RPMI-8226 leukemia): > 100 µM
TGI (COLO 205 colon): > 100 µM
TGI (HCT-15 colon): > 100 µM
TGI (SNB-19 CNS): > 100 µM
TGI (DMS 273 small cell lung): > 100 µM
TGI (HT29 colon): > 100 µM
TGI (SR leukemia): > 100 µM
TGI (XF 498 CNS): > 100 µM
TGI (HOP-62 NSCLC): > 100 µM
TGI (TK-10 renal): > 100 µM
TGI (SNB-78 CNS): > 100 µM
TGI (HL-60(TB) leukemia): > 100 µM
TGI (LOX IMVI melanoma): > 100 µM
TGI (A549 NSCLC): > 100 µM
TGI (HOP-92 NSCLC): > 100 µM
TGI (DLD-1 colon): > 100 µM
TGI (SF-295 CNS): > 100 µM
TGI (NCI-H522 lung): > 100 µM
TGI (K-562 leukemia): > 100 µM
TGI (M19-MEL melanoma): > 100 µM
TGI (OVCAR-3 ovarian): > 100 µM
TGI (SK-MEL-5 melanoma): > 100 µM
TGI (SK-MEL-2 melanoma): > 100 µM
TGI (EKVX NSCLC): > 100 µM
TGI (SF-268 CNS): > 100 µM
TGI (NCI-H226 lung): > 100 µM
TGI (CAKI-1 renal): > 100 µM
TGI (UACC-257 melanoma): > 100 µM
TGI (ACHN renal): > 100 µM

COc1ccc(/C(=N/NC(N)=O)C2(O)C(=O)Nc3ccc([N+](=O)[O-])cc32)cc1 (stereo unspecified)
TGI (786-0 renal): 30.2 µM
TGI (OVCAR-5 ovarian): 81.2 µM
TGI (HCC-2998 colon): > 100 µM
TGI (SNB-75 CNS): 69.8 µM
TGI (M14 melanoma): 31.1 µM
TGI (LXFL 529 NSCLC): 35.9 µM
TGI (NCI-H23 lung): 31.6 µM
TGI (SK-MEL-28 melanoma): 36.9 µM
TGI (MOLT-4 leukemia): 50 µM
TGI (SW-620 colon): 50.8 µM
TGI (IGROV1 ovarian): 94.7 µM
TGI (UACC-62 melanoma): 43.6 µM
TGI (DMS 114 small cell lung): 47.8 µM
TGI (U251 CNS): > 10 µM
TGI (SF-539 CNS): 31.3 µM
TGI (KM12 colon): 49.5 µM
TGI (HCT-116 colon): 36.1 µM
TGI (MALME-3M melanoma): > 10 µM
TGI (OVCAR-8 ovarian): 47.7 µM
TGI (OVCAR-4 ovarian): 27.1 µM
TGI (UO-31 renal): 34.8 µM
TGI (NCI-H460 lung): 39.4 µM
TGI (CCRF-CEM leukemia): 32.3 µM
TGI (KM20L2 colon): 51.5 µM
TGI (RPMI-8226 leukemia): 74.1 µM
TGI (COLO 205 colon): 53.4 µM
TGI (HCT-15 colon): 46.1 µM
TGI (SNB-19 CNS): > 10 µM
TGI (DMS 273 small cell lung): 39.3 µM
TGI (HT29 colon): 42.2 µM
TGI (SR leukemia): 47.1 µM
TGI (XF 498 CNS): 30.1 µM
TGI (HOP-62 NSCLC): > 100 µM
TGI (SNB-78 CNS): 34.7 µM
TGI (SN12C renal): > 10 µM
TGI (SK-OV-3 ovarian): > 100 µM
TGI (A498 renal): 87.5 µM
TGI (A549 NSCLC): > 100 µM
TGI (HOP-92 NSCLC): 45.4 µM
TGI (DLD-1 colon): 57 µM
TGI (NCI-H522 lung): 41.9 µM
TGI (K-562 leukemia): 58.8 µM
TGI (M19-MEL melanoma): 45.6 µM
TGI (OVCAR-3 ovarian): 33.1 µM
TGI (SK-MEL-5 melanoma): 77.2 µM
TGI (SK-MEL-2 melanoma): 40.2 µM
TGI (EKVX NSCLC): > 100 µM
TGI (SF-268 CNS): 40.6 µM
TGI (NCI-H226 lung): > 100 µM
TGI (CAKI-1 renal): 57.7 µM
TGI (UACC-257 melanoma): 39.4 µM
TGI (ACHN renal): 30.6 µM
